Test results published in ChEMBL document CHEMBL3232998, “Spiromastixones A-O, antibacterial chlorodepsidones from a deep-sea-derived Spiromastix sp. fungus” (J Nat Prod, 2014).
Values after ≈ are worked out from the molar mass of the structure shown.

Assays:
[1] = system: Enterococcus faecalis; experiment: Antibacterial activity against vancomycin-resistant Enterococcus faecalis 09-9 after 18 hrs by broth microdilution method; format: functional, organism-based; details: 09-9, 18 h, read-out: IC50
[2] = system: Escherichia coli; experiment: Antibacterial activity against extended spectrum beta-lactamase-deficient Escherichia coli ATCC 25922 after 18 hrs by broth microdilution method; format: functional, organism-based; details: ATCC 25922, 18 h, read-out: IC50
[3] = system: Klebsiella pneumoniae; experiment: Antibacterial activity against extended spectrum beta-lactamase producing Klebsiella pneumoniae ATCC 700603 after 18 hrs by broth microdilution method; format: functional, organism-based; details: ATCC 700603, 18 h
[4] = system: Bacillus thuringiensis; experiment: Antibacterial activity against Bacillus thuringiensis SCSIO BT01 after 18 hrs by broth microdilution method; format: functional; details: SCSIO BT01, 18 h
[5] = system: Staphylococcus aureus; experiment: Antibacterial activity against methicillin-sensitive Staphylococcus aureus 12-28 after 18 hrs by broth microdilution method; format: functional, organism-based; details: 12-28, 18 h
[6] = system: Bacillus subtilis; experiment: Antibacterial activity against Bacillus subtilis SCSIO BS01 after 18 hrs by broth microdilution method; format: functional; details: SCSIO BS01, 18 h
[7] = system: Escherichia coli; experiment: Antibacterial activity against extended spectrum beta-lactamase-deficient Escherichia coli 12-14 after 18 hrs by broth microdilution method; format: functional, organism-based; details: 12-14, 18 h, read-out: IC50
[8] = system: Enterococcus faecalis; experiment: Antibacterial activity against vancomycin-sensitive Enterococcus faecalis ATCC 29212 after 18 hrs by broth microdilution method; format: functional, organism-based; details: ATCC 29212, 18 h, read-out: IC50
[9] = system: Escherichia coli; experiment: Antibacterial activity against Escherichia coli ATCC 25922 after 18 hrs by broth microdilution method; format: functional; details: ATCC 25922, 18 h
[10] = system: Klebsiella pneumoniae; experiment: Antibacterial activity against extended spectrum beta-lactamase-deficient Klebsiella pneumoniae 12-4 after 18 hrs by broth microdilution method; format: functional, organism-based; details: 12-4, 18 h
[11] = system: Staphylococcus epidermidis; experiment: Antibacterial activity against methicillin-resistant Staphylococcus epidermidis 12-8 after 18 hrs by broth microdilution method; format: functional, organism-based; details: 12-8, 18 h, read-out: IC50
[12] = system: Klebsiella pneumoniae; experiment: Antibacterial activity against NDM-1 producing Klebsiella pneumoniae ATCC BAA-2146 after 18 hrs by broth microdilution method; format: functional, organism-based; details: ATCC BAA-2146, 18 h, read-out: IC50
[13] = system: Staphylococcus aureus; experiment: Antibacterial activity against methicillin-sensitive Staphylococcus aureus ATCC 29213 after 18 hrs by broth microdilution method; format: functional, organism-based; details: ATCC 29213, 18 h, read-out: IC50
[14] = system: Staphylococcus aureus; experiment: Antibacterial activity against methicillin-sensitive Staphylococcus aureus 15 after 18 hrs by broth microdilution method; format: functional, organism-based; details: Staphylococcus aureus, 15, 18 h; read-out: IC50
[15] = system: Staphylococcus epidermidis; experiment: Antibacterial activity against methicillin-sensitive Staphylococcus epidermidis ATCC 12228 after 18 hrs by broth microdilution method; format: functional, organism-based; details: ATCC 12228, 18 h, read-out: IC50
[16] = system: Staphylococcus aureus; experiment: Antibacterial activity against Staphylococcus aureus ATCC 29213 after 18 hrs by broth microdilution method; format: functional; details: ATCC 29213, 18 h
[17] = system: Escherichia coli; experiment: Antibacterial activity against extended spectrum beta-lactamase-deficient Escherichia coli 1515 after 18 hrs by broth microdilution method; format: functional, organism-based; details: Escherichia coli, 1515, 18 h
[18] = system: Enterococcus faecium; experiment: Antibacterial activity against vancomycin-resistant Enterococcus faecium 12-1 after 18 hrs by broth microdilution method; format: functional, organism-based; details: 12-1, 18 h, read-out: IC50
[19] = system: Enterococcus faecalis; experiment: Antibacterial activity against vancomycin-resistant Enterococcus faecalis ATCC 51299 after 18 hrs by broth microdilution method; format: functional, organism-based; details: ATCC 51299, 18 h, read-out: IC50
[20] = system: Enterococcus faecalis; experiment: Antibacterial activity against vancomycin-sensitive Enterococcus faecalis 12-5 after 18 hrs by broth microdilution method; format: functional, organism-based; details: 12-5, 18 h, read-out: IC50
[21] = system: Klebsiella pneumoniae; experiment: Antibacterial activity against extended spectrum beta-lactamase-deficient Klebsiella pneumoniae 7 after 18 hrs by broth microdilution method; format: functional, organism-based; details: Klebsiella pneumoniae, 7, 18 h; read-out: IC50
[22] = system: Staphylococcus aureus; experiment: Antibacterial activity against methicillin-resistant Staphylococcus aureus 12-33 after 18 hrs by broth microdilution method; format: functional, organism-based; details: 12-33, 18 h, read-out: IC50
[23] = system: Staphylococcus aureus; experiment: Antibacterial activity against methicillin-resistant Staphylococcus aureus ATCC 33591 after 18 hrs by broth microdilution method; format: functional, organism-based; details: ATCC 33591, 18 h, read-out: IC50
[24] = system: Enterococcus faecium; experiment: Antibacterial activity against vancomycin-resistant Enterococcus faecium ATCC 700221 after 18 hrs by broth microdilution method; format: functional, organism-based; details: ATCC 700221, 18 h, read-out: IC50
[25] = system: Staphylococcus epidermidis; experiment: Antibacterial activity against methicillin-sensitive Staphylococcus epidermidis 12-6 after 18 hrs by broth microdilution method; format: functional, organism-based; details: 12-6, 18 h
[26] = system: Klebsiella pneumoniae; experiment: Antibacterial activity against extended spectrum beta-lactamase producing Klebsiella pneumoniae 12-8 after 18 hrs by broth microdilution method; format: functional, organism-based; details: 12-8, 18 h, read-out: IC50
[27] = system: Escherichia coli; experiment: Antibacterial activity against extended spectrum beta-lactamase producing Escherichia coli 12-15 after 18 hrs by broth microdilution method; format: functional, organism-based; details: 12-15, 18 h, read-out: IC50
[28] = system: Enterococcus faecium; experiment: Antibacterial activity against vancomycin-sensitive Enterococcus faecium 12-3 after 18 hrs by broth microdilution method; format: functional, organism-based; details: 12-3, 18 h, read-out: IC50
[29] = system: Staphylococcus aureus; experiment: Ratio of levofloxacin IC50 to compound IC50 for methicillin-resistant Staphylococcus aureus 12-33 after 18 hrs by broth microdilution method; format: functional

## CCCc1cc(O)cc2c1Oc1c(Cl)c(O)c(Cl)c(CCC)c1C(=O)O2
[1]
  MIC: > 256 µM
[2]
  MIC: > 256 µM
[3]
  IC50: > 256 µM
[4]
  MIC: 2 mg/L (≈ 5.03 µM)
[5]
  IC50: 128 µM
[6]
  MIC: 4 mg/L (≈ 10.1 µM)
[7]
  MIC: > 256 µM
[8]
  MIC: > 256 µM
[9]
  MIC: > 128 mg/L
[10]
  IC50: > 256 µM
[11]
  MIC: 64 µM (≈ 25.4 µg/mL)
[12]
  MIC: > 256 µM
[13]
  MIC: 64 µM (≈ 25.4 µg/mL)
[14]
  MIC: 64 µM (≈ 25.4 µg/mL)
[15]
  MIC: 32 µM (≈ 12.7 µg/mL)
[16]
  MIC: 4 mg/L (≈ 10.1 µM)
[17]
  IC50: > 256 µM
[18]
  MIC: > 256 µM
[19]
  MIC: > 256 µM
[20]
  MIC: > 256 µM
[21]
  MIC: > 256 µM
[22]
  MIC: 128 µM (≈ 50.8 µg/mL)
[23]
  MIC: 32 µM (≈ 12.7 µg/mL)
[24]
  MIC: > 256 µM
[25]
  IC50: 32 µM
[26]
  MIC: > 256 µM
[27]
  MIC: > 256 µM
[28]
  MIC: > 256 µM

## CCCc1c(Cl)c(O)cc2c1Oc1c(Cl)c(O)c(Cl)c(CCC)c1C(=O)O2
[1]
  MIC: 32 µM (≈ 13.8 µg/mL)
[2]
  MIC: > 256 µM
[3]
  IC50: > 256 µM
[4]
  MIC: 1 mg/L (≈ 2.32 µM)
[5]
  IC50: 4 µM
[6]
  MIC: 0.5 mg/L (≈ 1.16 µM)
[7]
  MIC: > 256 µM
[8]
  MIC: 32 µM (≈ 13.8 µg/mL)
[9]
  MIC: > 128 mg/L
[10]
  IC50: > 256 µM
[11]
  MIC: 4 µM (≈ 1.73 µg/mL)
[12]
  MIC: > 256 µM
[13]
  MIC: 4 µM (≈ 1.73 µg/mL)
[14]
  MIC: 4 µM (≈ 1.73 µg/mL)
[15]
  MIC: 2 µM (≈ 0.863 µg/mL)
[16]
  MIC: 2 mg/L (≈ 4.63 µM)
[17]
  IC50: > 256 µM
[18]
  MIC: 16 µM (≈ 6.91 µg/mL)
[19]
  MIC: 32 µM (≈ 13.8 µg/mL)
[20]
  MIC: 32 µM (≈ 13.8 µg/mL)
[21]
  MIC: > 256 µM
[22]
  MIC: 4 µM (≈ 1.73 µg/mL)
[23]
  MIC: 4 µM (≈ 1.73 µg/mL)
[24]
  MIC: 32 µM (≈ 13.8 µg/mL)
[25]
  IC50: 4 µM
[26]
  MIC: > 256 µM
[27]
  MIC: > 256 µM
[28]
  MIC: 32 µM (≈ 13.8 µg/mL)

## CCCc1c(Cl)c(OC)cc2c1Oc1c(Cl)c(O)c(Cl)c(CCC)c1C(=O)O2
[1]
  MIC: 256 µM (≈ 114 µg/mL)
[2]
  MIC: > 256 µM
[3]
  IC50: > 256 µM
[4]
  MIC: 0.5 mg/L (≈ 1.12 µM)
[5]
  IC50: 4 µM
[6]
  MIC: 0.25 mg/L (≈ 0.561 µM)
[7]
  MIC: > 256 µM
[8]
  MIC: 128 µM (≈ 57.1 µg/mL)
[9]
  MIC: > 128 mg/L
[10]
  IC50: > 256 µM
[11]
  MIC: 2 µM (≈ 0.891 µg/mL)
[12]
  MIC: > 256 µM
[13]
  MIC: 8 µM (≈ 3.57 µg/mL)
[14]
  MIC: 4 µM (≈ 1.78 µg/mL)
[15]
  MIC: 4 µM (≈ 1.78 µg/mL)
[16]
  MIC: 0.5 mg/L (≈ 1.12 µM)
[17]
  IC50: > 256 µM
[18]
  MIC: 16 µM (≈ 7.13 µg/mL)
[19]
  MIC: > 256 µM
[20]
  MIC: > 256 µM
[21]
  MIC: > 256 µM
[22]
  MIC: 8 µM (≈ 3.57 µg/mL)
[23]
  MIC: 4 µM (≈ 1.78 µg/mL)
[24]
  MIC: 256 µM (≈ 114 µg/mL)
[29]
  Ratio IC50: 2
[25]
  IC50: 4 µM
[26]
  MIC: > 256 µM
[27]
  MIC: > 256 µM
[28]
  MIC: 256 µM (≈ 114 µg/mL)

## CCCc1cc(O)c(Cl)c2c1Oc1c(Cl)c(O)c(Cl)c(CCC)c1C(=O)O2
[1]
  MIC: 16 µM (≈ 6.91 µg/mL)
[2]
  MIC: 64 µM (≈ 27.6 µg/mL)
[3]
  IC50: 256 µM
[4]
  MIC: 1 mg/L (≈ 2.32 µM)
[5]
  IC50: 8 µM
[6]
  MIC: 1 mg/L (≈ 2.32 µM)
[7]
  MIC: 64 µM (≈ 27.6 µg/mL)
[8]
  MIC: 16 µM (≈ 6.91 µg/mL)
[9]
  MIC: > 128 mg/L
[10]
  IC50: 128 µM
[11]
  MIC: 4 µM (≈ 1.73 µg/mL)
[12]
  MIC: 256 µM (≈ 111 µg/mL)
[13]
  MIC: 4 µM (≈ 1.73 µg/mL)
[14]
  MIC: 4 µM (≈ 1.73 µg/mL)
[15]
  MIC: 4 µM (≈ 1.73 µg/mL)
[16]
  MIC: 4 mg/L (≈ 9.27 µM)
[17]
  IC50: 64 µM
[18]
  MIC: 16 µM (≈ 6.91 µg/mL)
[19]
  MIC: 16 µM (≈ 6.91 µg/mL)
[20]
  MIC: 16 µM (≈ 6.91 µg/mL)
[21]
  MIC: 256 µM (≈ 111 µg/mL)
[22]
  MIC: 8 µM (≈ 3.45 µg/mL)
[23]
  MIC: 4 µM (≈ 1.73 µg/mL)
[24]
  MIC: 16 µM (≈ 6.91 µg/mL)
[29]
  Ratio IC50: 2
[25]
  IC50: 2 µM
[26]
  MIC: 128 µM (≈ 55.3 µg/mL)
[27]
  MIC: 64 µM (≈ 27.6 µg/mL)
[28]
  MIC: 32 µM (≈ 13.8 µg/mL)
